Experimental findings from patent US10538555B2, “Macrocyclic inhibitors of the PD-1/PD-L1 and CD80(B7-1)/PD-L1 protein/protein interactions” (BRISTOL-MYERS SQUIBB COMPANY, priority 2014, dated 2020) are described below.

Where a SMILES comes first, the peptide text is derived from it. Bridges are numbered along the chain shown (N, C = ends). [ ]: non-standard residue; d: D form. Trp(1-CH2COOH) = N[C@@H](Cc1cn(CC(=O)O)c2ccccc12)C(=O)O; Trp(1-Me) = Cn1cc(C[C@H](N)C(=O)O)c2ccccc21; Bta = N[C@@H](Cc1csc2ccccc12)C(=O)O; Lys(Me2) = CN(C)CCCC[C@H](N)C(=O)O; Hyp = O=C(O)[C@@H]1C[C@@H](O)CN1; NMeNle = CCCC[C@H](NC)C(=O)O; NMeS = CN[C@@H](CO)C(=O)O; Pip = O=C(O)[C@@H]1CCCCN1; NMeA = CN[C@@H](C)C(=O)O; Dab = NCC[C@H](N)C(=O)O; Dap = NC[C@H](N)C(=O)O

The target of this assay is T1, Human PD-L1/PD-1 (Homo sapiens, UniProt Q9NZQ7).
T1 construct: TVMV protease cleavage site (C); made in house; host or cells: HEK293T cells
T1 sequence (Q9NZQ7 with tags, fused parts or gaps): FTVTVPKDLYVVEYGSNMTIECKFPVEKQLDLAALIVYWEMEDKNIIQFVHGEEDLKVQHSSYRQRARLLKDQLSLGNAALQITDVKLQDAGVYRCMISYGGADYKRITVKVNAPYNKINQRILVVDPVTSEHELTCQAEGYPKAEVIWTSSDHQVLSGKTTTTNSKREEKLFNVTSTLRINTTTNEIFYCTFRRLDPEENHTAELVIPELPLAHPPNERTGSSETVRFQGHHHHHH
The assay can be described thus: HTRF Human PD-L1/PD-1 binding assay (PD-1-Ig/PD-L1-His). Particulars: PD-L1-His 10 nM, PD-1-Ig 20 nM; class symbol; read-out: HTRF Human PD-L1/PD-1 Binding Assay IC50 Range. In a few lines: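 Compound preincubated 15 min with PD-L1-His (10 nM final), then PD-1-Ig (20 nM final) added for 15 min in dPBS with 0.1% BSA and 0.05% Tween-20. Detection by Eu-cryptate anti-Ig (1 nM) and APC anti-His (20 nM) after 30 min; 665/620 nm HTRF ratio. Proteins expressed in HEK293T.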
In general terms: Time-resolved FRET reads energy transfer from a long-lived donor to a nearby acceptor.

With `CCCC[C@H]1C(=O)N(C)[C@@H](CCCC)C(=O)N[C@@H](CN)C(=O)N[C@H](C(=O)NCC(N)=O)CSCC(=O)N[C@@H](Cc2ccc(O)cc2)C(=O)N2CCCC[C@H]2C(=O)N[C@@H](CC(N)=O)C(=O)N2CCC[C@H]2C(=O)N[C@@H](CN)C(=O)N[C@@H](CCC(=O)O)C(=O)N2C[C@H](O)C[C@H]2C(=O)N[C@@H](Cc2c[nH]c3ccccc23)C(=O)N[C@@H](CO)C(=O)N[C@@H](Cc2cn(CC(=O)O)c3ccccc23)C(=O)N1C` [Example 1300] ({CH2CO}-Y[Pip]NP[Dap]E[Hyp]WS[Trp(1-CH2COOH)][NMeNle][NMeNle][Dap]CG-NH2; thioether N-14), the IC50 was in the range of 1 to 9.9 nM.
Under `CCCC[C@H]1C(=O)N(C)[C@@H](CCCC)C(=O)N[C@@H](CN)C(=O)N[C@H](C(=O)NCC(N)=O)CSCC(=O)N[C@@H](Cc2ccc(O)cc2)C(=O)N2CCCC[C@H]2C(=O)N[C@@H](CC(N)=O)C(=O)N2CCC[C@H]2C(=O)N[C@@H](Cc2cnc[nH]2)C(=O)N[C@@H](CCC(N)=O)C(=O)N2C[C@H](O)C[C@H]2C(=O)N[C@@H](Cc2c[nH]c3ccccc23)C(=O)N[C@@H](CCN)C(=O)N[C@@H](Cc2cn(CC(=O)O)c3ccccc23)C(=O)N1C` [Example 1301] ({CH2CO}-Y[Pip]NPHQ[Hyp]W[Dab][Trp(1-CH2COOH)][NMeNle][NMeNle][Dap]CG-NH2; thioether N-14) stands 10 to 99.9 nM; under `CCCC[C@H]1C(=O)N(C)[C@@H](CCCC)C(=O)N[C@@H](CC(=O)O)C(=O)N[C@H](C(=O)NCC(N)=O)CSCC(=O)N[C@@H](Cc2ccc(O)cc2)C(=O)N2CCCC[C@H]2C(=O)N[C@@H](CC(=O)O)C(=O)N2CCC[C@H]2C(=O)N[C@@H](Cc2cnc[nH]2)C(=O)N[C@@H](CCCCN)C(=O)N2C[C@H](O)C[C@H]2C(=O)N[C@@H](Cc2c[nH]c3ccccc23)C(=O)N[C@@H](CCCCN)C(=O)N[C@@H](Cc2cn(CC(=O)O)c3ccccc23)C(=O)N1C` [Example 1302] ({CH2CO}-Y[Pip]DPHK[Hyp]WK[Trp(1-CH2COOH)][NMeNle][NMeNle]DCG-NH2; thioether N-14), 1 to 9.9 nM; under `CCCC[C@H]1C(=O)N(C)[C@@H](CCCC)C(=O)N[C@@H](CCC(=O)O)C(=O)N[C@H](C(=O)NCC(N)=O)CSCC(=O)N[C@@H](Cc2ccc(O)cc2)C(=O)N2CCCC[C@H]2C(=O)N[C@@H](CC(N)=O)C(=O)N2CCC[C@H]2C(=O)N[C@@H](Cc2cnc[nH]2)C(=O)N[C@@H](CCCCN)C(=O)N2C[C@H](O)C[C@H]2C(=O)N[C@@H](Cc2c[nH]c3ccccc23)C(=O)N[C@@H](CCCCN)C(=O)N[C@@H](Cc2cn(CC(=O)O)c3ccccc23)C(=O)N1C` [Example 1303] ({CH2CO}-Y[Pip]NPHK[Hyp]WK[Trp(1-CH2COOH)][NMeNle][NMeNle]ECG-NH2; thioether N-14), 10 to 99.9 nM.
For `CCCC[C@H]1C(=O)N(C)[C@@H](CCCC)C(=O)N[C@@H](CC(C)C)C(=O)N[C@H](C(=O)NCC(N)=O)CSCC(=O)N[C@@H](Cc2ccc(O)cc2)C(=O)N2CCCC[C@H]2C(=O)N[C@@H](CC(N)=O)C(=O)N2CCC[C@H]2C(=O)N[C@@H](CO)C(=O)N[C@@H](CCC(N)=O)C(=O)N2C[C@H](O)C[C@H]2C(=O)N[C@@H](Cc2c[nH]c3ccccc23)C(=O)N[C@@H](CO)C(=O)N[C@@H](Cc2cn(CC(=O)O)c3ccccc23)C(=O)N1C` [Example 1304] ({CH2CO}-Y[Pip]NPSQ[Hyp]WS[Trp(1-CH2COOH)][NMeNle][NMeNle]LCG-NH2; thioether N-14) the value was 10 to 99.9 nM.
Under `CCCC[C@H]1C(=O)N(C)[C@@H](CCCC)C(=O)N[C@@H](CCC(=O)O)C(=O)N[C@H](C(=O)NCC(N)=O)CSCC(=O)N[C@@H](Cc2ccc(O)cc2)C(=O)N2CCCC[C@H]2C(=O)N[C@@H](CC(N)=O)C(=O)N2CCC[C@H]2C(=O)N[C@@H](CO)C(=O)N[C@@H](CC(C)C)C(=O)N2C[C@H](O)C[C@H]2C(=O)N[C@@H](Cc2c[nH]c3ccccc23)C(=O)N[C@@H](CCN)C(=O)N[C@@H](Cc2cn(CC(=O)O)c3ccccc23)C(=O)N1C` [Example 1305] ({CH2CO}-Y[Pip]NPSL[Hyp]W[Dab][Trp(1-CH2COOH)][NMeNle][NMeNle]ECG-NH2; thioether N-14) stands 1 to 9.9 nM; under `CCCC[C@H]1C(=O)N(C)[C@@H](CCCC)C(=O)N[C@@H](CCCCN(C)C)C(=O)N[C@H](C(=O)NCC(N)=O)CSCC(=O)N[C@@H](Cc2ccc(O)cc2)C(=O)N2CCCC[C@H]2C(=O)N[C@@H](CC(=O)O)C(=O)N2CCC[C@H]2C(=O)N[C@@H](CN)C(=O)N[C@@H](CCC(=O)O)C(=O)N2C[C@H](O)C[C@H]2C(=O)N[C@@H](Cc2c[nH]c3ccccc23)C(=O)N[C@@H](CO)C(=O)N[C@@H](Cc2c[nH]c3ccccc23)C(=O)N1C` [Example 1306] ({CH2CO}-Y[Pip]DP[Dap]E[Hyp]WSW[NMeNle][NMeNle][Lys(Me2)]CG-NH2; thioether N-14), 10 to 99.9 nM.
On to `CCCC[C@H]1C(=O)N(C)[C@@H](CO)C(=O)N[C@@H](CCC(=O)O)C(=O)N[C@H](C(=O)NCC(N)=O)CSCC(=O)N[C@@H](Cc2ccc(O)cc2)C(=O)N2CCCC[C@H]2C(=O)N[C@@H](CC(=O)O)C(=O)N2CCC[C@H]2C(=O)N[C@@H](CN)C(=O)N[C@@H](CCC(=O)O)C(=O)N2C[C@H](O)C[C@H]2C(=O)N[C@@H](Cc2c[nH]c3ccccc23)C(=O)N[C@@H](CO)C(=O)N[C@@H](Cc2c[nH]c3ccccc23)C(=O)N1C` [Example 1309] ({CH2CO}-Y[Pip]DP[Dap]E[Hyp]WSW[NMeNle][NMeS]ECG-NH2; thioether N-14), for which the IC50 lay in the range of 10 to 99.9 nM.
For `CCCC[C@H]1C(=O)N(C)[C@@H](CCCC)C(=O)N[C@@H](CCC(=O)O)C(=O)N[C@H](C(=O)NCC(N)=O)CSCC(=O)N[C@@H](Cc2ccc(O)cc2)C(=O)N(C)[C@@H](C)C(=O)N[C@@H](CC(=O)O)C(=O)N2CCC[C@H]2C(=O)N[C@@H](Cc2cnc[nH]2)C(=O)N[C@@H](CCC(N)=O)C(=O)N2C[C@H](O)C[C@H]2C(=O)N[C@@H](Cc2c[nH]c3ccccc23)C(=O)N[C@@H](CO)C(=O)N[C@@H](Cc2cn(C)c3ccccc23)C(=O)N1C` [Example 1500] ({CH2CO}-Y[NMeA]DPHQ[Hyp]WS[Trp(1-Me)][NMeNle][NMeNle]ECG-NH2; thioether N-14) the value was 1 to 9.9 nM; for `CCCC[C@H]1C(=O)N(C)[C@@H](CCCC)C(=O)N[C@@H](C)C(=O)N[C@H](C(=O)NCC(N)=O)CSCC(=O)N[C@@H](Cc2ccc(O)cc2)C(=O)N(C)[C@@H](C)C(=O)N[C@@H](CC(=O)O)C(=O)N2CCC[C@H]2C(=O)N[C@@H](Cc2c[nH]cn2)C(=O)N[C@@H](CCC(N)=O)C(=O)N2C[C@H](O)C[C@H]2C(=O)N[C@@H](Cc2c[nH]c3ccccc23)C(=O)N[C@@H](CO)C(=O)N[C@@H](Cc2cn(C)c3ccccc23)C(=O)N1C` [Example 1501] ({CH2CO}-Y[NMeA]DPHQ[Hyp]WS[Trp(1-Me)][NMeNle][NMeNle]ACG-NH2; thioether N-14), 10 to 99.9 nM.
For `CCCC[C@H]1C(=O)N(C)[C@@H](CCCC)C(=O)N[C@@H](C)C(=O)N[C@H](C(=O)NCC(N)=O)CSCC(=O)N[C@@H](Cc2ccc(O)cc2)C(=O)N2CCCC[C@H]2C(=O)N[C@@H](CC(=O)O)C(=O)N2CCC[C@H]2C(=O)N[C@@H](Cc2cnc[nH]2)C(=O)N[C@@H](CCC(N)=O)C(=O)N2C[C@H](O)C[C@H]2C(=O)N[C@@H](Cc2c[nH]c3ccccc23)C(=O)N[C@@H](CO)C(=O)N[C@@H](Cc2cn(C)c3ccccc23)C(=O)N1C` [Example 1502] ({CH2CO}-Y[Pip]DPHQ[Hyp]WS[Trp(1-Me)][NMeNle][NMeNle]ACG-NH2; thioether N-14) the value was 10 to 99.9 nM.
With `CCCC[C@H]1C(=O)N(C)[C@@H](CCCC)C(=O)N[C@@H](CC(C)C)C(=O)N[C@H](C(=O)NCC(N)=O)CSCC(=O)N[C@@H](Cc2ccc(O)cc2)C(=O)N(C)[C@@H](C)C(=O)N[C@@H](CC(=O)O)C(=O)N2CCC[C@H]2C(=O)N[C@@H](Cc2cnc[nH]2)C(=O)N[C@@H](CCC(N)=O)C(=O)N2C[C@H](O)C[C@H]2C(=O)N[C@@H](Cc2c[nH]c3ccccc23)C(=O)N[C@@H](CO)C(=O)N[C@@H](Cc2cn(C)c3ccccc23)C(=O)N1C` [Example 1503] ({CH2CO}-Y[NMeA]DPHQ[Hyp]WS[Trp(1-Me)][NMeNle][NMeNle]LCG-NH2; thioether N-14), the IC50 was in the range of 1 to 9.9 nM.
In the case of `CCCC[C@H]1C(=O)N(C)[C@@H](CCCC)C(=O)N[C@@H](CCC(=O)O)C(=O)N[C@H](C(=O)NCC(N)=O)CSCC(=O)N[C@@H](Cc2ccc(O)cc2)C(=O)N2CCCC[C@H]2C(=O)N[C@@H](CC(N)=O)C(=O)N2CCC[C@H]2C(=O)N[C@@H](Cc2cnc[nH]2)C(=O)N[C@@H](CCC(=O)O)C(=O)N2C[C@H](O)C[C@H]2C(=O)N[C@@H](Cc2c[nH]c3ccccc23)C(=O)N[C@@H](CO)C(=O)N[C@@H](Cc2cn(C)c3ccccc23)C(=O)N1C` [Example 1504] ({CH2CO}-Y[Pip]NPHE[Hyp]WS[Trp(1-Me)][NMeNle][NMeNle]ECG-NH2; thioether N-14), the IC50 fell in the range of 10 to 99.9 nM.
For `CCCC[C@H]1C(=O)N(C)[C@@H](CCCC)C(=O)N[C@@H](CCC(=O)O)C(=O)N[C@H](C(=O)NCC(N)=O)CSCC(=O)N[C@@H](Cc2ccc(O)cc2)C(=O)N2CCCC[C@H]2C(=O)N[C@@H](CC(=O)O)C(=O)N2CCC[C@H]2C(=O)N[C@@H](Cc2cnc[nH]2)C(=O)N[C@@H](CCC(=O)O)C(=O)N2C[C@H](O)C[C@H]2C(=O)N[C@@H](Cc2c[nH]c3ccccc23)C(=O)N[C@@H](CO)C(=O)N[C@@H](Cc2cn(C)c3ccccc23)C(=O)N1C` [Example 1505] ({CH2CO}-Y[Pip]DPHE[Hyp]WS[Trp(1-Me)][NMeNle][NMeNle]ECG-NH2; thioether N-14), the IC50 is 1 to 9.9 nM.
In the case of `CCCC[C@H]1C(=O)N(C)[C@@H](CCCC)C(=O)N[C@@H](CCC(=O)O)C(=O)N[C@H](C(=O)NCC(N)=O)CSCC(=O)N[C@@H](Cc2ccc(O)cc2)C(=O)N2CCCC[C@H]2C(=O)N[C@@H](CC(=O)O)C(=O)N2CCC[C@H]2C(=O)N[C@@H](CO)C(=O)N[C@@H](CCC(N)=O)C(=O)N2C[C@H](O)C[C@H]2C(=O)N[C@@H](Cc2c[nH]c3ccccc23)C(=O)N[C@@H](CO)C(=O)N[C@@H](Cc2csc3ccccc23)C(=O)N1C` [Example 1506] ({CH2CO}-Y[Pip]DPSQ[Hyp]WS[Bta][NMeNle][NMeNle]ECG-NH2; thioether N-14), the IC50 was in the range of 1 to 9.9 nM.
